Measured values from article PMC2904774 (PLoS Pathogens, 2010).

Target: T1, NUE (CT737), GST-NUE (Chlamydia trachomatis, UniProt O84742)
T1 construct: gene CT_737
Details: core histones or recombinant H2B, H3, H4 as acceptor, also automethylation; 50 mM Tris pH 8, 20 mM KCl, 10 mM MgCl2, 1 mM DTT, 30 °C, 1 h; labelled compound

T1 sequence (O84742 entry or part of it): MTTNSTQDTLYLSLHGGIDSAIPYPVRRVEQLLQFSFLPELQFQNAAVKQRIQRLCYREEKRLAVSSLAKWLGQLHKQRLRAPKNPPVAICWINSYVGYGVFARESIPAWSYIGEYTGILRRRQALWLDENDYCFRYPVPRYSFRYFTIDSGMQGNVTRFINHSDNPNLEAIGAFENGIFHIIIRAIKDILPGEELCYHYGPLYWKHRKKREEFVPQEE

Structure (SMILES): C[S+](CC[C@H](N)C(=O)O)C[C@H]1O[C@@H](n2cnc3c(N)ncnc32)[C@H](O)[C@@H]1O (stereo partly drawn) [SAM, S-adenosyl-L-methionine]
- in vitro methyltransferase assay, 14C autoradiography of SDS-PAGE: in vitro methyltransferase assays using GST-NUE purified from E. coli and mammalian histones
